Data taken from PubChem BioAssay AID179 (DTP/NCI, 2004).
Several values for one entry are separate records, joined by “and”; a condition that tells them apart may be missing. Identical values can stand only once. Activity calls are given as the source filed them.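 The calls were made as follows: active = compounds giving half or more protection of infected cells from virus-caused growth loss, again on retest; inactive = the rest.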 Where a SMILES comes first, the peptide text is derived from it.

System: CEM cells HIV-1 protection, formazan growth assay
Experiment: NCI AIDS Antiviral Assay
Conditions: for IC50: measured here: growth of uninfected CEM cells
In short: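 Human CEM cells, uninfected and HIV-1-infected, received five drug concentrations, and growth was read by soluble formazan assay. Compounds giving at least 50% protection were retested; reproducible 100% protection defined confirmed active.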

SMILES	outcome	EC50 [µM]	IC50
CCOC(=O)C1C(c2ccccc2)=C(c2ccccc2)C(c2ccccc2)=C1c1ccccc1	inactive		
NC(N)=N/N=C/c1c(Cl)nc2sccn12		> 200	38 µM
O=C(O)c1nc2cc(C(F)(F)F)ccc2nc1Nc1ccc(Cl)c(Cl)c1		> 200	10 µM
COc1cccc(/C=C(\NC(C)=O)c2nc3ccc(Cl)cc3[nH]2)c1	inactive		
Cc1cc(Cl)cc(S)c1S(=O)(=O)Nc1nnc2c3ccccc3cnn12		77.6	> 200 µM
CCC1(c2ccccc2)NC(=O)N(C)C1=O (stereo not drawn)		> 200	> 200 µM
O=C1/C(=C/c2cccc([N+](=O)[O-])c2)Cc2ccccc21		> 200	> 200 µM
CC1(C)/C(=N\O)C2(OS(=O)(=O)C(F)(F)F)CCC1C2 (stereo not drawn)		> 200	> 200 µM
O=C1/C(=C\c2cccc(Oc3ccccc3)c2)SC(c2ccccc2)N1c1ccc(Cl)cc1 (stereo not drawn)		> 20	1.29 µM
CCN1CCC(O)(c2ccc(Cl)c(Cl)c2)C(C(=O)c2ccc(Cl)c(Cl)c2)C1 (stereo not drawn)		> 67.6	38.9 µM
O=C(O)c1ccccc1NS(=O)(=O)c1ccc([N+](=O)[O-])cc1	inactive		
NC(N)=Nc1ccc2oc(=O)ccc2c1		> 120	> 120 µM
COc1ccc2nc3cc(Cl)ccc3c(Sc3ccc([N+](=O)[O-])cc3)c2c1		> 4.79	> 4.79 µM
COc1ccc2nc3cccc([N+](=O)[O-])c3c(NCCCCCC(=O)O)c2c1		> 2	0.302 µM
CC1(C)C2CCC(CN)(C2)C1O (stereo not drawn)		> 200	> 200 µM
NCCNCCCCCCCCCCCCOS(=O)(=O)O		> 112	> 112 µM
N=c1oc2ccccc2cc1-c1nc2ccccc2[nH]1	inactive		
CC1=C(C(=O)Nc2ccccc2)C(c2ccc(N(C)C)cc2)C(C(=O)Nc2ccccc2)=C(C)N1	inactive		
CN(C)c1ccc(/C=C(\NC(=O)c2ccccc2)C2=NC(CCC(=O)O)C(=O)O2)cc1 (stereo not drawn)		> 50.1	> 50.1 µM
CC(=O)O[C@H]1CCC2[C@@H]3CC[C@]4(C)CC(=O)C=C[C@]4(C)C3CC[C@@]21C (stereo partly drawn)	inactive		
CCC1C2C=CC(CC2)N1S(=O)(=O)c1ccc(C)cc1 (stereo not drawn)		> 64.6	36.3 µM
CN(C(=O)C12C3C4C1C1C2C3C41C(=O)O)C(C)(C)C (stereo not drawn)	inactive		

SMILES	outcome	EC50 [µM]	IC50
Nc1ccccc1C(=O)CCC1C(=O)NC(=S)NC1=O		> 6.92	> 6.92 µM
COc1ccc(C(OCC2OC(N3CN4C(=NC3=O)N(C(=O)C(C)C)C(OC(=O)C(C)C)C4OC(=O)C(C)C)CC2OP(OC)N(C(C)C)C(C)C)(c2ccccc2)c2ccc(OC)cc2)cc1 (stereo not drawn)		> 100	> 100 µM
Cc1ccc(C)c(NC(=O)C(=O)C(C2C(C)CC(=O)C2CC(=O)O)[N+](=O)[O-])c1 (stereo not drawn)		> 646	> 646 µM
Clc1ccc(C=Nc2ccc(SSc3ccc(N=Cc4ccc(Cl)cc4)cc3)cc2)cc1		> 200	22.4 µM
Nc1ccc2c(c1)CN1C(=O)c3ccccc3C1=N2		> 15.1	2.95 µM
CC(=O)Oc1ccc2c(C)cc(=O)oc2c1OC(C)=O		> 200	69.2 µM
O=C1NCN(c2ccccc2)C12CCN(CCCSc1ccc(F)cc1)CC2		> 200	18.2 µM
NC(=O)c1cc(/C=C/c2ccccc2)on1		> 200	> 200 µM
O=C(CCCCCCCCC(=O)N1C(=O)CC(=O)N(c2cccc(Cl)c2)C1=S)N1C(=O)CC(=O)N(c2cccc(Cl)c2)C1=S		> 200	85.1 µM
O=C(O)/C=C\SCCCC(=O)O		> 1320	> 1320 µM and 1100 µM
COC1O[C@@H]2CCN3C(=O)[C@@H](OC(=O)c4ccc([N+](=O)[O-])cc4)[C@H]1C23 (stereo partly drawn)		> 200	> 200 µM
O=C(CCc1nnc2s/c(=C\c3ccc(Cl)cc3Cl)c(=O)n12)Nc1cc(Cl)c(Cl)cc1Cl		> 13.2	> 13.2 µM
O=C(O)C1Cc2[nH]c3ccccc3c2C2CCCC12 (stereo not drawn)		> 708	363 µM
O=C(CCC[n+]1ccccc1)CC(O)(C(F)(F)F)C(F)(F)F		> 200	> 200 µM
BrCC[P+](c1ccccc1)(c1ccccc1)c1ccccc1		> 200	3.98 µM
Cc1cccc(N2C(c3ccccc3)c3ccc(C)cc3NS2=O)c1 (stereo not drawn)		> 257	151 µM
OCCN(CCO)CN(CO)c1nc(N(CO)CN(CCO)CCO)nc(N(CO)CN(CCO)CCO)n1		> 437	> 437 µM
CCOC(=O)/C(C#N)=C/c1coc2cc(C)cc(C)c2c1=O		> 200	11 µM
COc1ccc2c(c1)C(=O)C1CCC(=O)N1C2c1ccc2c(c1)OCO2 (stereo not drawn)		> 200	3.72 µM
CCOC(=O)CCC(NC(=O)OCc1ccccc1)C(=O)NNC(=O)OC(C)(C)C (stereo not drawn)		> 200	> 200 µM
CCC(/C(=N/NC(=O)C[N+](C)(C)C)c1ccccc1)C1OC(=O)c2ccccc21 (stereo not drawn)		> 575	> 575 µM
CCC1(CCCC=C(c2cc(Cl)c(OC)c(C(=O)OC)c2)c2cc(Cl)c(OC)c(C(=O)OC)c2)OCCO1		> 200	148 µM

SMILES	outcome	EC50 [µM]	IC50
O=[N+]([O-])c1ccccc1S(=O)(=O)c1cccc2c1NCCC2		3.47	38 µM
Cc1cc(C)[s+]s1		> 200	112 µM and 182 µM
CCN(CC)CCN1C(=O)C2C3C=CC(C2C1=O)C1C2C(=O)N(CCN(CC)CC)C(=O)C2C31 (stereo not drawn)		> 200	> 200 µM
O=C1C2CCSCN2C(=O)N1c1ccccc1 (stereo not drawn)		> 40.7	> 40.7 µM
O=C(OC[C@H]1O[C@@H](OC(=O)c2cc(O)c(O)c(O)c2)[C@H](OC(=O)c2cc(O)c(O)c(O)c2)[C@@H](OC(=O)c2cc(O)c(O)c(O)c2)[C@@H]1OC(=O)c1cc(O)c(O)c(O)c1)c1cc(O)c(O)c(O)c1		> 132	21.4 µM
Cc1cc2cc3ccccc3cc2c(=O)[nH]1		> 200	182 µM
C#CCn1c2c(c3ccccc3c1=O)C(=O)c1ccccc1-2		> 63.1	> 63.1 µM
COc1ccccc1-c1csc(CCC(N)C(=O)O)n1 (stereo not drawn)	inactive		
CCOC(=O)c1cn(Cc2ccccc2)c(=O)n1Cc1ccccc1		> 107	60.3 µM
N#CC1(c2ccccc2)CCOCC1		> 501	> 501 µM
CC1(C)OC(COP2OCCO2)[C@H](COP2OCCO2)O1 (stereo partly drawn)		> 200	> 200 µM
O=C1C2Nc3ccccc3SC2C(=O)N1c1ccc(Br)cc1 (stereo not drawn)		> 19.1	> 19.1 µM
Cc1ccccc1CN1C2=NCCN2C(=O)C2=C1CCN(S(=O)(=O)c1ccc(Cl)c(S(N)(=O)=O)c1)C2		> 200	93.3 µM
C(=N\Nc1nnc2c(n1)[nH]c1ccccc12)/c1cccnc1		> 200	> 200 µM
CC1(C)OC2COC3([C@@H]4OC(C)(C)O[C@@H]4CO)OC(C)(C)OC3C2O1 (stereo partly drawn)		> 200	> 200 µM
OCC(O)C(OC1OC(CO)C(O)C(O)C1O)c1nn(-c2ccccc2)c2nc3cc(Cl)c(Cl)cc3cc12 (stereo not drawn)	inactive		
O=C(/N=C1/OC(CN2CCOCC2)CN1C(=O)Nc1ccccc1)Nc1ccccc1 (stereo not drawn)		> 200	> 200 µM
O=c1cc(-c2ccccc2)[nH]c2nccn12		> 200	> 200 µM
COC(=O)c1cc2nc(NC(C)=O)sc2n1C		> 200	> 200 µM
CN1C(=O)c2ccccc2C(O)(c2ccccc2)C1(O)c1ccccc1 (stereo not drawn)		> 200	64.6 µM
O=C1NC2OC(C(O)CO)C(O)C2O1 (stereo not drawn)		> 200	> 200 µM
CC1=C(C(=O)CC(=O)C(=O)Nc2ccc(Cl)cc2C)Sc2ccccc2N1		> 117	> 117 µM

SMILES	outcome	EC50 [µM]	IC50
Cc1c[nH]c(C(=O)O)c1-c1ccc2c(-c3ccccc3)nc3ccccc3n12		> 200	33.1 µM
CC(=O)OC(OC(C)=O)c1c2ccccc2cc2ccccc12		> 200	9.77 µM
CC(C)(C)CC(C)(C)c1ccc(OCCO)cc1	inactive		
CCn1c(=N)sc2nc3ccccc3n2c1=O		> 200	58.9 µM
Clc1ccc(COC(Cn2ccnc2)c2ccc(Cl)cc2Cl)cc1 (stereo not drawn)		> 200	34.7 µM
O=C(Cc1nc2ccccc2o1)C(=O)Nc1cccc(Cl)c1	inactive		
c1c[nH]c(C23C4C5C6C4C2C6C53)n1 (stereo not drawn)		> 200	> 200 µM
c1ccc(C2=NN3CN(N2)c2ccccc2OCCCOc2ccccc23)cc1		> 200	105 µM
CNCCCC1c2ccccc2C=Cc2ccccc21		> 200	37.2 µM
ClCCCCCc1c2nc(c(CCCCCCl)c3ccc([nH]3)c(CCCCCCl)c3ccc([nH]3)c(CCCCCCl)c3nc1C=C3)C=C2		> 200	> 200 µM
NCCN.NCCN.O=C([O-])CCl.O=C([O-])CCl.[Co+3].[O-][Cl+3]([O-])([O-])[O-]	inactive		
COc1ccc([C@H]2CC(=O)C[C@H](c3ccc(OC)cc3)C23C(=O)c2ccccc2C3=O)cc1		> 200	2.63 µM
O=P1(Cc2ccccc2)OC2CC(Cl)CC(C2)O1 (stereo not drawn)		> 126	> 126 µM
Cc1cc(N)ccc1N=Nc1ccc(S(=O)(=O)CCOS(=O)(=O)O)cc1		> 2	0.912 µM
Cc1cc(Cl)c(O)c(C(=O)C(=O)C(O)c2ccc3c(c2)OCO3)c1 (stereo not drawn)		> 200	2.45 µM
CCC(C)C(NC(=O)C(CC(C)C)NC(=O)CNC(=O)C(CC(N)=O)NC(=O)C(CC(=O)O)NC(=O)C(N)CC(C)C)C(=O)NC(CC(C)C)C(=O)NC(C)C(=O)NC(Cc1ccc(O)cc1)C(=O)O (stereo not drawn) (H-LDNGLILAY-OH; configuration not given here)		> 50.1	> 50.1 µM
CC(C)(C)C1CCC2c3c([nH]c4ccccc34)C3C(=O)N(c4ccc(C(=O)O)cc4)C(=O)C3C2C1 (stereo not drawn)		> 200	14.5 µM
O=C(N/N=C/c1cc(S(=O)(=O)O)c2cccnc2c1O)C(=O)N/N=C/c1cc(S(=O)(=O)O)c2cccnc2c1O		> 200	41.7 µM
COc1ccc(C(CC(=O)C(C)(C)CN2CCCCC2)SCCS(=O)(=O)O)cc1 (stereo not drawn)		> 200	13.2 µM
